# Tests used:
# Assay type in all cases: cell-based, Sprague-Dawley rats
# [1] = tested on: CA1 PCs in rat hippocampal slices; experiment: Ex vivo eCB / S-eCB mobilization protocol: eIPSC amplitudes by whole-cell voltage-clamp
# Description: To test the acute effect of AβO on hippocampal S-eCB mobilization, hippocampal slices from Sprague-Dawley rats (SD, 2 to 3 weeks old, DaeHan Biolink, Co., Ltd., Korea) were used. Male and female rats were used in all in vitro experiments. To test the chronic effect of AβO on hippocampus-dependent memory impairments caused by amyloidosis, the 5XFAD mouse model (6 to 7 months old, #34840-JAX, Jackson Laboratory, USA), which is a mouse model of Alzheimer's disease that mimics AβO depositions, was used. C57BL/6 mice (6 to 7 months old, KOATECH, Korea) were used as wild type (WT) control mice for 5XFAD mice. Male 5XFAD and C57BL/6 mice were used for all in vivo behavioral experiments. The 5XFAD mouse genotypes were identified by polymerase chain reaction (PCR) using DNA extracted from the tails of the mice. All animal-related procedures followed the guidelines of the Institutional Animal Care and Use Committee of Korea University (guidelines for SD rats: KUIACUC-2017-103, guidelines for C57BL/6 and 5XFAD mice: KUIACUC-2019-0068).
# (§1) Soluble AβO was prepared according to a previous study (BMC Biol. 2020; 18(1):7). Specifically, Aβ1-42 (Aβ) and a scrambled form of Aβ as a control peptide were purchased in powder form. Aβ and scrambled Aβ were dissolved for monomerization in 1,1,1,3,3,3-hexafluoro-2-propanol (HFIP, Sigma Aldrich, USA) at a final concentration of 1 mM, and the solution was incubated for 90 minutes. After the HFIP was evaporated, the remaining thin and clear film of Aβ or scrambled Aβ was dissolved in dimethyl sulfoxide (DMSO, Sigma Aldrich, USA) to prepare 5 mM Aβ or scrambled Aβ stocks, which were aliquoted and frozen at −20° C. Aβ or scrambled Aβ stocks were thawed and diluted to 100 μM in artificial cerebrospinal fluid (ACSF). Thereafter, Aβ or scrambled Aβ stocks were incubated for oligomerization for 18 hours. The final AβO or scrambled AβO stock solution was diluted to a final concentration of 200 nM in 31.2 ml of ACSF, and rat hippocampal slices were treated with the stock solution for 20 minutes in a recovery chamber before measurement of brain signals. In control experiments for normal brain conditions using a vehicle, rat hippocampal slices were treated with 0.004% DMSO in ACSF.
# (§2) The brains of SD rats were isolated following decapitation under isoflurane-induced anesthesia and transferred into ice-cold ACSF containing 126 mM NaCl, […], 1.25 mM NaH2PO4, 2 mM MgSO4, 2 mM CaCl2), 25 mM NaHCO3, and 10 mM glucose (pH 7.2 to 7.4). The ACSF was continuously oxygenated with 95% O2/5% CO2. Horizontal hippocampal slices (350 μm thickness) were obtained using a vibratome (VT1000S, Leica Biosystems, Germany) and immediately incubated at room temperature in a submerged chamber perfused with oxygenated ACSF for at least 1 hour.
# To quantify eCB mobilization, the changes in eCB mobilization-induced Schaffer collateral (SC) nerve bundle stimulation-evoked inhibitory postsynaptic current (eIPSC) amplitudes were measured in CA1 PCs through the whole-cell voltage-clamp technique. The whole-cell voltage-clamp technique in CA1 PCs was performed using a MultiClamp 700B amplifier (Molecular Devices, USA) under an infrared differential interference contrast video microscope (BW51W, Olympus, Japan), using a borosilicate electrode (tip resistance: 4 to 8 MΩ) that was filled with an intracellular solution containing 145 mM CsCl, 10 mM HEPES, 2 mM EGTA, 4 mM QX-314, 4 mM Mg-ATP, 0.4 mM […], pH 7.2 to 7.3, and 270 to 280 mOsm/L. To record eIPSCs in the CA1 PCs, a stimulating electrode (A-M Systems, USA) was placed in a stratum radiatum to stimulate the SC pathway that carries CA3 PC axons. Electrical stimulation pulses of 200 to 400 μA amplitudes (20 to 40 μs) were generated using a constant current stimulator (model DS3, Digitimer Ltd., UK). eIPSCs were recorded in CA PCs every 1 second while maintaining the membrane potential at −70 mV.
# [2] = tested on: hippocampal CA3-CA1 excitatory synapses; experiment: S-eCB mobilization induced spike timing-dependent potentiation (tLTP) protocol, EPSP slope
# Protocol: as §1, §2
# PLCβ1 = experiment: Western blot of PLCβ1 in rat hippocampal slices; conditions: AβO-treated rat hippocampal slices
# Protocol: as §1, with “The final AβO or scrambled AβO stock solution was diluted to a final concentration of 200 nM in 31.2 ml of ACSF, and rat hippocampal slices were treated with the stock solution for 20 minutes in a recovery chamber before measurement of brain signals. In control experiments for normal brain conditions using a vehicle, rat hippocampal slices were treated with 0.004% DMSO in ACSF.” left out
# Hippocampal PLCβ1 of SD rats and C57BL/6 or 5XFAD mice were prepared from homogenized hippocampi dissolved in 200 μL of RIPA buffer (Bio-Rad, USA), and were resolved on non-reducing 10% tris-glycine-sodium dodecyl sulfate-polyacrylamide gel electrophoresis (SDS-PAGE) gels (Bio-Rad, USA) using 4×Laemmli sample buffers (Bio-Rad, USA). […] Immunoreactivity was confirmed with enhanced chemiluminescence (Bio-Rad, USA) using a Fluorchem E system (ProteinSimple, USA) and analyzed with ImageJ software. […]
# [3] = DMSO-treated rat hippocampal slices, D-AP5 50 μM or AM251 3 μM
molecule,measurement,setting,value
Cc1c(C(=O)NN2CCCCC2)nn(-c2ccc(Cl)cc2Cl)c1-c1ccc(I)cc1 [AM251],effect on the DHPG-induced decrease of eIPSC amplitude (eCB mobilization),"[1]; AM251 3 μM, DHPG puff alone",blocked the decrease in amplitude
"N[C@H](CCCP(=O)(O)O)C(=O)O [D-AP5, D-2-amino-5-phosphonovaleric acid]",mGluR5-mediated LTD in the presence of antagonist,[2]; [3],induced in both the test and control pathways
same,"tLTP induction (EPSP slope, test pathway), effect of antagonist",[2]; [3],completely blocked
"N[C@H](C(=O)O)c1cc(O)cc(O)c1 [DHPG, (S)-3,5-dihydroxyphenylglycine]",first ten eIPSC amplitudes as % of the mean eIPSC amplitude measured at the baseline before the DHPG puff,"[1]; DHPG (50 μM) puff alone, rat hippocampal slices, mean±SEM",79±7%
same,eIPSC amplitude as % of the baseline eIPSC amplitude (S-eCB mobilization),"[1]; DHPG puff paired with 60-s-long postsynaptic neural spike trains at 1 Hz, DMSO-treated rat hippocampal slices, mean±SEM",62±4%
Cc1cc(C(=O)O)ccc1[C@H](N)C(=O)O [LY367385],eIPSC amplitudes following 60-s-long DHPG puff during 1 Hz neural spikes in the presence of mGluR1 antagonist,"[1]; LY367385 100 μM, DMSO-treated rat hippocampal slices",decreased
"Cc1cccc(C#Cc2ccccc2)n1 [MPEP, 2-methyl-6-(phenylethynyl) pyridine]",eIPSC amplitudes following DHPG puff during 1 Hz neural spikes in the presence of mGluR5 antagonist,"[1]; MPEP 10 μM, DMSO-treated, AβO-treated or scrambled AβO-treated rat hippocampal slices",did not significantly change
COc1ccc2c(c1)CC[C@@H]1[C@@H]2CC[C@]2(C)[C@@H](NCCCCCCN3C(=O)C=CC3=O)CC[C@@H]12 [U73122],"synergistic enhancement in the suppression of eIPSC amplitudes (S-eCB mobilization), effect of PLCβ blocker","[1]; U73122 5 μM, DMSO-treated rat hippocampal slices, similar in AβO- and scrambled AβO-treated slices",completely blocked
AβO: soluble amyloid beta oligomer prepared from Aβ1-42 peptide powder (Bachem),eIPSC amplitudes / suppression of eIPSC amplitudes following DHPG puff during 1 Hz neural spikes in peptide-treated slices,"[1]; slices treated with 200 nM peptide for 20 minutes, in the presence of LY367385 100 μM",completely blocked
same,mGluR-LTD in the control pathway,[2]; AβO-treated compared to DMSO-treated rat hippocampal slices,not affected
same,induction of tLTP in the test pathway,[2]; AβO-treated rat hippocampal slices,completely blocked
same,protein expression levels of PLCβ1 compared to DMSO-treated slices,PLCβ1,remarkably decreased

# Reference: patent US20250049741A1, “COMPOSITION FOR PREVENTING OR TREATING ALZHEIMER'S DISEASE COMPRISING PHOSPHOLIPASE C ACTIVATOR AS AN ACTIVE INGREDIENT” (Korea University Research and Business Foundation, priority 2021, published 2025)
